# From ChEMBL document CHEMBL1201862, “PubChem BioAssay data set” (2004)
# “And” between values parts separate entries of the source, which are not always exact repeats. Equal values may be shown once. The source made the active and inactive calls.
# Legend:
# [1] = C. albicans growth with fluconazole, confirmation, fluorescence, retest (AID 2467); format: functional, cell-based
# [2] = target: ATP-dependent molecular chaperone HSP82 (Candida albicans (strain WO-1) (Yeast), UniProt C4YTQ8); assay: loss of DOC-induced GRE-beta-galactosidase reporter signal, dose response, Hsp90 inhibitor project, S. cerevisiae, luminescence (AID 2400); format: functional, cell-based;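 note: beta-galactosidase luminescence from glucocorticoid response element reporter as proxy for Hsp90 function; inhibitor potency where signal loss means Hsp90 inhibition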
# [3] = NIH-3T3 fibroblast cytotoxicity, dose response, cytotoxicity control, cell-based, fluorescence, Alamar Blue, secondary assay (AID 2327); format: functional;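 note: NIH-3T3 mouse fibroblasts cultured with fluconazole at 8 µg/mL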
# [4] = target: Serine/threonine-protein phosphatase (Candida dubliniensis (strain CD36 / CBS 7987 / NCPF 3949 / NRRLY-17841) (Yeast), UniProt B9W6M3); assay: calcineurin pathway inhibitors in yeast reporter, dose response, S. cerevisiae, CDRE-lacZ, luminescence, secondary (AID 2388); format: functional, cell-based;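 note: yeast reporter cells carrying a calcineurin-responsive lacZ construct stimulated with calcium chloride; luminescent beta-galactosidase reporter signal in whole cells rather than isolated phosphatase activity; potency for inhibition where a drop in reporter signal means calcineurin blockade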
# Keap1/Nrf2 = Keap1/Nrf2 (Homo sapiens, UniProt Q14145); assay: Keap1-Nrf2 protein-protein interaction inhibitors, dose response, biochemical, fluorescence polarization, cherry-picked samples (AID 588683)
# [5] = target: T1, Corticotropin-releasing factor receptor 2/Corticotropin-releasing factor-binding protein (Homo sapiens, UniProt P24387+Q13324); assay: activators of CRF receptor 2 with binding protein – uHTS hits, confirmation (AID 602473); format: functional; conditions: read-out: EC50_Mean
# T1 sequence (Q13324 whole entry): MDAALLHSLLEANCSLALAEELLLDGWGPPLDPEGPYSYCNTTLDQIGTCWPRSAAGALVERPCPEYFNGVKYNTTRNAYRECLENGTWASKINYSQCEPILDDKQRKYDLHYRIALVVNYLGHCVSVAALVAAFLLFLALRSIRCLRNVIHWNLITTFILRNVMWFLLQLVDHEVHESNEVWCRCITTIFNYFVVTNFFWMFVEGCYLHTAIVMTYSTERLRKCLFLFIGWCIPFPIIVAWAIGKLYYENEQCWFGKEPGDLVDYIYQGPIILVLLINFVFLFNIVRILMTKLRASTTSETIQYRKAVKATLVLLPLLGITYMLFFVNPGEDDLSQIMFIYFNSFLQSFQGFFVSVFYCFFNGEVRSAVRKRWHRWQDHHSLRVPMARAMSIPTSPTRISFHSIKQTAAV
# T1 sequence (P24387 whole entry): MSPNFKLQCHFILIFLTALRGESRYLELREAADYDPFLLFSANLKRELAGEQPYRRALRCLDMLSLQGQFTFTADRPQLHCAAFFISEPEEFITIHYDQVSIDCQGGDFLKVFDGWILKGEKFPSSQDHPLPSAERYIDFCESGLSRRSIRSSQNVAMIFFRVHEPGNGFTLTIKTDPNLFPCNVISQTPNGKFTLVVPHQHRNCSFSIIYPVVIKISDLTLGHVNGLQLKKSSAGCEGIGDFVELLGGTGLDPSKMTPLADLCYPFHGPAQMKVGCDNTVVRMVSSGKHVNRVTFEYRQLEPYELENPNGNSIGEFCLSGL
# [6] = target: Eukaryotic translation initiation factor 4E (Mus musculus, UniProt P63073); assay: eIF4E–eIF4G protein interaction inhibitors, dose response, biochemical, TR-FRET (AID 855); format: functional;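 note: potency for disrupting eIF4E binding to eIF4GI seen as loss of FRET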
# HeLa = assay: HeLa cell cytotoxicity, dose response, cytotoxicity control, 24 h, cherry-picked samples (AID 504726); format: functional, cell-based; conditions: Homo sapiens;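 note: potency for cytotoxicity as loss of luminescence signal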
# ORF 73 = ORF 73 (Human herpesvirus 8, UniProt O40947); assay: inhibitors of C-LANA binding to LBS DNA, dose response, biochemical, fluorescence polarization, cherry-picked samples (AID 504725); design: species or system Human gammaherpesvirus 8;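 note: fluorescence polarization of a labeled DNA duplex reporting LANA DNA binding; potency is for inhibitors that block LANA binding to the DNA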
# Vero [7] = assay: cells; format: functional; conditions: Chlorocebus sabaeus
# Beta Lactamase = Beta Lactamase (Pseudomonas aeruginosa, UniProt Q932Y6); assay: beta-lactamase reporter inhibitor potency, dose response, artefact control for NOD2-RIPK2 interaction inhibitor project, BLA reporter cells, FRET fluorescence (AID 651552); format: functional, cell-based
# [8] = Shn3 3'UTR reporter inhibitors, dose response, cell-based, Clone20 osteoblasts, firefly luciferase, cherry-picked (AID 624132); format: functional;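 note: firefly luciferase luminescence from reporter carrying the Shn3 3'UTR in osteoblasts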
# Vero [9] = assay: cells; format: functional, cell-based; conditions: Chlorocebus sabaeus
# [10] = HepG2 cell cytotoxicity, dose response, cytotoxicity control for Shn3 inhibitor project, CellTiter-Glo, cherry-picked (AID 624134); format: functional, cell-based
# [11] = Fluorescence-based cell-based high throughput dose response assay for inhibitors of the interaction of nucleotide-binding oligomerization domain containing 2 (NOD2) and the receptor-interacting serine-threonine kinase 2 (RIPK2).; format: functional; conditions: Homo sapiens
# [12] = control 3'UTR Renilla luciferase suppression, dose response, counter-screen for Shn3 inhibitor project, cell-based, Clone20-Shn3RL, cherry-picked (AID 624133); format: functional
# [13] = Luminescence Cell-Based Dose Response HTS to Identify Inhibitors of 5'UTR Stem-Loop Driven Prion Protein mRNA Translation in H4 Neuroglioblastoma Cells. [Related pubchem assays: 1827 (Project Summary), 1813 (Primary HTS)]; format: functional
# [14] = inhibitors of SNCA 5'UTR-driven reporter translation, confirmation, H4 neuroglioma cells, luminescence (AID 1988); format: functional, cell-based
# [15] = target: Glyceraldehyde-3-phosphate dehydrogenase (Homo sapiens, UniProt P04406)
# [16] = target: Luciferin 4-monooxygenase (Photinus pyralis, UniProt P08659); assay: Counter Screen for Luciferase-based Assay Positives. [Related pubchem assays: 620, 618, 411 ]
# [17] = ZM109 Env clade C HIV-1 fusion inhibitors, dose response, HeLa effector, CEM target cells, luciferase, cherry-pick (AID 652058); format: functional, cell-based
# Jurkat [18] = assay: antigen receptor-induced NF-kB inhibitors, dose response, Jurkat, luciferase reporter, luminescence, B- and T-cell (AID 489004); format: functional, cell-based; conditions: Homo sapiens;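 note: NF-kB luciferase reporter Jurkat cells stimulated with PMA plus ionomycin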
# [19] = inhibitors of HIV Env-driven cell fusion, dose response, cherry-pick (AID 652057); format: functional, cell-based
# HT-1080 = assay: cytotoxicity in HT1080 fibrosarcoma cells, cell-based, fluorescence readout (AID 620); format: functional; conditions: Homo sapiens
# [20] = inhibitors of clade B AD8 Env fusion, dose response, cell-based, cherry-pick (AID 652062); format: functional;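 note: luciferase signal from cell-cell fusion driven by HIV-1 clade B AD8 Env; potency is for inhibitors of fusion seen as a drop in luminescence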
# [21] = target: Voltage-dependent T-type calcium channel subunit alpha-1H (Homo sapiens, UniProt O95180); format: functional;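 note: channel activity triggered by adding a high calcium stimulation buffer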
# [22] = off-target signal loss in HeLa-CEM21 co-culture – HeLa F-luc CTL cells, cherry-picked, counter-screen for HIV-1 Env fusion inhibitor project, dose response (AID 652040); format: functional, cell-based;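 note: potency for signal decrease marking cytotoxic or nonspecific inhibition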
# [23] = luciferase reporter signal reduction – luminescence, H4-C neuroglioblastoma cells, dose response (AID 2458); format: functional, cell-based;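 note: H4 neuroglioblastoma cells stably carrying a luciferase reporter gene fusion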
# cells = format: functional, cell-based
# [24] = cytotoxicity in HEK-293T NF-kB-Luc cells, dose response, cytotoxicity control for B/T-cell NF-kB inhibitor project, cell-based, uHTS hits (AID 489019); format: functional;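 note: IC50 reflects cytotoxicity as loss of cell viability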
# [25] = inhibitors of firefly luciferase expression or activity, dose response, H4 neuroglioma cells, luminescence (AID 1990); format: functional, cell-based
# [26] = inhibitors of SNCA 5'UTR-driven translation, confirmation, luminescence, H4 neuroglioblastoma cells, dose confirmation (AID 2454); format: functional, cell-based;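 note: H4 neuroglioblastoma cells carrying an alpha-synuclein 5'UTR luciferase reporter; potency for inhibition of the luciferase signal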
# CAAX prenyl protease 1 = CAAX prenyl protease 1 (Saccharomyces cerevisiae S288c, UniProt P47154); assay: Ste24 protease inhibitors, dose response, biochemical, S. cerevisiae, plate reader, cherry-pick (AID 488815)
# Escherichia coli [27] = assay: microbe, parasite or virus in culture
# Escherichia coli [28] = assay: microbe, parasite or virus in culture; remark: listed apart in the source
# [29] = Luminescence Cell-Based Dose Retest to Confirm Inhibitors of Cancer Stem Cells. [Related pubchem assays (depositor defined):AID2717, AID2721]; format: functional; conditions: Homo sapiens
# Paired box protein Pax-8 = Paired box protein Pax-8 (Homo sapiens, UniProt Q06710); assay: inhibitors of PAX8-driven TPO luciferase reporter, dose response, RMG-I cells, cherry-pick (AID 687027); format: functional, cell-based;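 note: luciferase reporter driven by Pax8 target thyroperoxidase promoter measured by SteadyGlo luminescence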
# HEK293 [30] = assay: SAR Analysis of small molecule inhibitors of T-cell specific antigen receptor-induced NF-kB activation in a HEK-293T cell line using a luminescence assay - Set 2. [Related pubchem assays (depositor defined):AID435003, AID435012, AID489026]; format: functional, cell-based; conditions: Homo sapiens
# Jurkat [31] = assay: SAR Analysis of small molecule inhibitors of T-cell specific antigen receptor-induced NF-kB activation in a Jurkat cell line using a luminescence assay - Set 2. [Related pubchem assays (depositor defined):AID435003, AID435012, AID465]; format: functional, cell-based; conditions: Homo sapiens
# HEK293 [32] = assay: cytotoxicity in HEK293T NF-kB-Luc cells, SAR follow-up, cytotoxicity control for NF-kB activator project, cell-based, resazurin fluorescence (AID 493251); format: functional; conditions: Homo sapiens
# [33] = target: Dual specificity protein kinase CLK1 (Homo sapiens, UniProt P49759); assay: CLK1 kinase inhibitors, off-target check, dose response, selectivity assay for Dyrk1A inhibitor project, biochemical, cherry-picked samples (AID 588811)
# Sequence of Dual specificity protein kinase CLK1 (P49759 whole entry): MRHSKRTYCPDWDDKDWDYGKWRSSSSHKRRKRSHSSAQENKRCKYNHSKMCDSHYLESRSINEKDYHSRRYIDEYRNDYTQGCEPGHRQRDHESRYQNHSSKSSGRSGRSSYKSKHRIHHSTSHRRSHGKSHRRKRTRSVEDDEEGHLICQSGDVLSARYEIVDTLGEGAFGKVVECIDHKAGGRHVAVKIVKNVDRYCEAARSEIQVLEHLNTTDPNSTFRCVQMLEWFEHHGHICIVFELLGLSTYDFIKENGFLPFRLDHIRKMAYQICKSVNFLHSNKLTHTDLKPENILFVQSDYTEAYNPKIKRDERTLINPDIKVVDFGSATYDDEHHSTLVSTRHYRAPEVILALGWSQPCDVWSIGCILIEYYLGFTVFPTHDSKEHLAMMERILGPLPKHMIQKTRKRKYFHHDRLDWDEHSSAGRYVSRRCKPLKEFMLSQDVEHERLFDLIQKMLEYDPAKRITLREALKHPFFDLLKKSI
# Sequence of Keap1/Nrf2 (Q16236 whole entry): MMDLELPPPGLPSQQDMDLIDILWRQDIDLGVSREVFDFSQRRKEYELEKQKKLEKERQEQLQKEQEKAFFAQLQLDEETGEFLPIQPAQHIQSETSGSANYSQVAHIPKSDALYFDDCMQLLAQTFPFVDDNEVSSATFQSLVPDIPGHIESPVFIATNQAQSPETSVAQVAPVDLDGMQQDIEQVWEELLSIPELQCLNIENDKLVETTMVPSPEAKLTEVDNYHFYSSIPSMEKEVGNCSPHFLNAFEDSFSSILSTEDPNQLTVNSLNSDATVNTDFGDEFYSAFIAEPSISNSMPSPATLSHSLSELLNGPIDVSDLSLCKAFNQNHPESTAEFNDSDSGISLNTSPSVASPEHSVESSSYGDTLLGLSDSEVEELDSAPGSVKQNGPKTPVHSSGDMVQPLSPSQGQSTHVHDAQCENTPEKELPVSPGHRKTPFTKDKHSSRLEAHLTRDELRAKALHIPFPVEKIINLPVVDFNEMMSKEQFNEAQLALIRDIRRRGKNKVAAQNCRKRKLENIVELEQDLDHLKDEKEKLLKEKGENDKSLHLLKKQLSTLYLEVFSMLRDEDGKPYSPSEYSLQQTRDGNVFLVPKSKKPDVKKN
# Sequence of Keap1/Nrf2 (Q14145 whole entry): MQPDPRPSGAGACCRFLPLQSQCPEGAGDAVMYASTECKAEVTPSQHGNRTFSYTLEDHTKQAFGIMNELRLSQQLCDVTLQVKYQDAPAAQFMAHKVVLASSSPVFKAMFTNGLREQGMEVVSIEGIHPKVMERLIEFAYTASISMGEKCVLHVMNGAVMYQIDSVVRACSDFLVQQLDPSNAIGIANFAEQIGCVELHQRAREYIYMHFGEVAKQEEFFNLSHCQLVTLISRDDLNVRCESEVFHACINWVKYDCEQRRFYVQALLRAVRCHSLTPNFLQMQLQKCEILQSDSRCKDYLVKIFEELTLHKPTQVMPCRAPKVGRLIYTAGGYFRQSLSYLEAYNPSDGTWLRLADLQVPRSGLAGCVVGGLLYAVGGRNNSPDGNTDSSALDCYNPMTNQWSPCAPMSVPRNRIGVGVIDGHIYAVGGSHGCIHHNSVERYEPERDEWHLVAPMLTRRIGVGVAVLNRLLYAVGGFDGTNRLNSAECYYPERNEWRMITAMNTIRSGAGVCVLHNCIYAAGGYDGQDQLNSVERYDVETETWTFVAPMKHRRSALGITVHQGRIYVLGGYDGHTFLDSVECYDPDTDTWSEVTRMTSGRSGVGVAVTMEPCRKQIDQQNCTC
# Sequence of ORF 73 (O40947 whole entry): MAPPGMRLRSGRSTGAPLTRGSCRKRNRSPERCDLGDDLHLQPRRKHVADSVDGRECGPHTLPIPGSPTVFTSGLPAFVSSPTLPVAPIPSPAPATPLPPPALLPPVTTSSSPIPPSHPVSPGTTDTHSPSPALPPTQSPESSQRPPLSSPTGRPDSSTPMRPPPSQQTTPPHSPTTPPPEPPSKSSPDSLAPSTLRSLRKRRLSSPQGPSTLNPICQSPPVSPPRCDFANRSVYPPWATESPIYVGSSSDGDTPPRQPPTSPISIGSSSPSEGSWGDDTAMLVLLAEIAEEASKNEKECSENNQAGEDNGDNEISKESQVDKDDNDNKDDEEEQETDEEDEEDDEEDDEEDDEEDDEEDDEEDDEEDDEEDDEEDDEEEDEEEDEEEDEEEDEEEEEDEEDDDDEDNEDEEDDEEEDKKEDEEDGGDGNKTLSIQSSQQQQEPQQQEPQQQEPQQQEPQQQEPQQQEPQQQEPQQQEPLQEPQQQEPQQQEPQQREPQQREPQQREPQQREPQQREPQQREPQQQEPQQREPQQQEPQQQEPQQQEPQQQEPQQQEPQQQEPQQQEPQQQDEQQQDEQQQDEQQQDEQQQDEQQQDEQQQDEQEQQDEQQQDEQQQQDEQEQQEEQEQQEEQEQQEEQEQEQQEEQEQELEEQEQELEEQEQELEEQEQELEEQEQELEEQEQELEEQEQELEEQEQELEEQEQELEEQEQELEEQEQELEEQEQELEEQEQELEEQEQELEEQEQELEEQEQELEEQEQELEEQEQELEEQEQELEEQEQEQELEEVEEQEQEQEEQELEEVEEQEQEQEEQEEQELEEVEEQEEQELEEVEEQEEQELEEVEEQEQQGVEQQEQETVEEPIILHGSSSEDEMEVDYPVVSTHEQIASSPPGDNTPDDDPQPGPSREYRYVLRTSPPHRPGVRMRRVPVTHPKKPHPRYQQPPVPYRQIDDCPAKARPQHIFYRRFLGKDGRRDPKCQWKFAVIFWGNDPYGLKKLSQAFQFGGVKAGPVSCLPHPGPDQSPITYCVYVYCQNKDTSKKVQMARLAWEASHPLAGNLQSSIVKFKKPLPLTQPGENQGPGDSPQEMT
# Sequence of Paired box protein Pax-8 (Q06710 whole entry): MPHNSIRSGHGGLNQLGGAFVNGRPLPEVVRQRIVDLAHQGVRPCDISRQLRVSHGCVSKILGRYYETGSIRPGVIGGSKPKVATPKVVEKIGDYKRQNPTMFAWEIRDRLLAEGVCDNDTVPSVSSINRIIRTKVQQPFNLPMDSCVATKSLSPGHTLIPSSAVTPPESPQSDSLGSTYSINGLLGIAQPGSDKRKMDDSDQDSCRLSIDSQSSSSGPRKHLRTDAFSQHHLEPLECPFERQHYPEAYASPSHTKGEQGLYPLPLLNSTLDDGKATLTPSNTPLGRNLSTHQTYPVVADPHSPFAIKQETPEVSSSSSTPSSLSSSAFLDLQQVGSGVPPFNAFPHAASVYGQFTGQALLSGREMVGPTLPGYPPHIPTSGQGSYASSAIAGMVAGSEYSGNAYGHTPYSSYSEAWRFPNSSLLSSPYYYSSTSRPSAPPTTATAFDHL
# Sequence of Serine/threonine-protein phosphatase (B9W6M3 whole entry): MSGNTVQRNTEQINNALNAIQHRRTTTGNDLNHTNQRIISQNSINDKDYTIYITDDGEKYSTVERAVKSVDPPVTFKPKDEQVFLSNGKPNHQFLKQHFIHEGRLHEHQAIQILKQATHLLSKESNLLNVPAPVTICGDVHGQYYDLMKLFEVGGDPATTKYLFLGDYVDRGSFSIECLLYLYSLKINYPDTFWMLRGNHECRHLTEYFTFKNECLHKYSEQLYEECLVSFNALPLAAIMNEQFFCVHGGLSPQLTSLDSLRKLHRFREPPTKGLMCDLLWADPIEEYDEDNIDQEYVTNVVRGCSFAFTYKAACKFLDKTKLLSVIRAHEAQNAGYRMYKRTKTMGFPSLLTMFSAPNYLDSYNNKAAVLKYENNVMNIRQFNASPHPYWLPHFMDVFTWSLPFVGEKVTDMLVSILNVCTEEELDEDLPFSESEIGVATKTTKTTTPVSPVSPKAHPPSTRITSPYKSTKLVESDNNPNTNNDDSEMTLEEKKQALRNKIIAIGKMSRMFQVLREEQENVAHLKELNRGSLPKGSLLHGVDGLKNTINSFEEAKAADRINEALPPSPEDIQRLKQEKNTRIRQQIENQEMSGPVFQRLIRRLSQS
# Sequence of ATP-dependent molecular chaperone HSP82 (C4YTQ8 whole entry): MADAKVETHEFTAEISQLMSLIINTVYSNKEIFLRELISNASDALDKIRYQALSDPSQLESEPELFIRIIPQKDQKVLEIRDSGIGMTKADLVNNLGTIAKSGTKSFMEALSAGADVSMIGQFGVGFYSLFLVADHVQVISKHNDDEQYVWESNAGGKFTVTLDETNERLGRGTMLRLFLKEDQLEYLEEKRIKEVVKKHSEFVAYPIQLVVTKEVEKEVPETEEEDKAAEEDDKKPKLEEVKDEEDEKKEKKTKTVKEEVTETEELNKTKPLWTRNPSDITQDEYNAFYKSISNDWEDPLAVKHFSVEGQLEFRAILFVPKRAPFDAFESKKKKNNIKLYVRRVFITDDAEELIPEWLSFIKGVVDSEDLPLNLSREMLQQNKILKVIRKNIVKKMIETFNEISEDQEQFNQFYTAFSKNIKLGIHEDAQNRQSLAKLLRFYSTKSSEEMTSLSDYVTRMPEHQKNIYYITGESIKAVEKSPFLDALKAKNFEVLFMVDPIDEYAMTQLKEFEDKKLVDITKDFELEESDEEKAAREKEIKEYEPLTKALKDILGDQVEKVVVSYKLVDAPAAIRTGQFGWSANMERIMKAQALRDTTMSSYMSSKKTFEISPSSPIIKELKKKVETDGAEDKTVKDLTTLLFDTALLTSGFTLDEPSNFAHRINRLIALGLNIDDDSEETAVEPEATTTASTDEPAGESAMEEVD
# Sequence of Beta Lactamase (Q932Y6 whole entry): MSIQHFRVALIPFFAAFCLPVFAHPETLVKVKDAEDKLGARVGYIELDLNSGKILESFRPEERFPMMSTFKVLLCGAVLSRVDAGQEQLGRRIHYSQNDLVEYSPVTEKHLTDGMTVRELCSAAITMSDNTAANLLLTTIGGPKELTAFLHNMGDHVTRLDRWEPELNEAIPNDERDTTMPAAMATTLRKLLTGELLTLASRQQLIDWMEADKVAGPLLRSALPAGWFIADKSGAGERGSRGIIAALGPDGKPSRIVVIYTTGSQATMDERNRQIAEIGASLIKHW
structure (smiles),measurement,setting,value
O=C(CC(=O)c1cccc([N+](=O)[O-])c1)Nc1ccccc1Cl,EC50,[1],0.524 µM (active)
same,EC50,[2],> 160 µM (inactive)
same,EC50,[3],> 150 µM (inactive)
same,EC50,[4],> 180 µM (inactive)
CCCN(CCC)S(=O)(=O)c1ccc(C(=O)OCCN2C(=O)c3cccc4c(N5CCOCC5)ccc(c34)C2=O)cc1,AC50,Keap1/Nrf2,7.75 µM (active)
same,EC50,[5],6.32 µM (active)
same,IC50,[6],> 64 µM (inactive)
same,AC50,HeLa,57.8 µM (active)
same,AC50,ORF 73,21.4 µM (active)
O=C(/C=C1\C(=O)Nc2ccccc21)/C=C1\C(=O)Nc2ccccc21,CC50,Vero [7],20 µM (active)
same,IC50,Beta Lactamase,28.6 µM (inactive)
same,AC50,[8],9.5 µM (active)
same,IC50,Vero [9],> 25 µM (active)
same,AC50,[10],64.7 µM (active)
same,IC50,[11],1.55 µM (active)
same,AC50,[12],11.7 µM (active)
COC(=O)CCn1nnc(-c2ccc(C(C)C)cc2)n1,EC50,[13],< 0.1 µM (active)
same,EC50,[14],< 0.1 µM (active)
same,IC50,[15],> 100 µM (not active)
same,EC50,[16],2.39 µM (active)
same,AC50,[17],< 0.26 µM (active)
same,IC50,Jurkat [18],< 0.16 µM (active)
same,AC50,[19],< 0.26 µM (active)
same,EC50,HT-1080,> 50 µM (not active)
same,AC50,[20],0.379 µM (active)
same,EC50,[21],16.2 µM (active)
same,AC50,[22],< 0.26 µM (active)
same,EC50,[23],0.251 µM (active)
same,EC50,cells,0.477 µM (active)
same,IC50,[24],> 80 µM (inactive)
same,EC50,[25],< 0.1 µM (active)
same,EC50,[26],0.373 µM (active)
COc1ccc2nc3ccccc3[n+]([O-])c2c1,AC50,Keap1/Nrf2,8.81 µM (active)
same,EC50,[5],18.1 µM (active)
same,AC50,HeLa,119 µM (active)
same,AC50,ORF 73,30.8 µM (active)
CC1=C(C(=O)N2CCOCC2)C(c2ccccc2F)C2=C(O)CC(C)(C)CC2=N1 (stereo not given),AC50,CAAX prenyl protease 1,14.6 µM (active)
COc1ccc(NC(=O)C/C(C)=N/NC(=O)C(=O)Nc2cccc(Cl)c2C)c(OC)c1,AC50,Escherichia coli [27],16.3 µM (active)
same,AC50,Escherichia coli [28],51.6 µM (active)
O=C(c1cccs1)N(Cc1nc(O)c2c3c(sc2n1)CCCC3)C1CCCC1,CC50,Vero [7],> 25 µM (active)
same,IC50,Vero [9],13.4 µM (active)
C[C@@H]1O[C@@H](O[C@@H]2C=C3CCC4C(CC[C@]5(C)[C@@H](c6ccc(=O)oc6)CC[C@]45O)[C@@]3(C)CC2)[C@H](O)[C@H](O)[C@H]1O (stereo not given in full),IC50,Jurkat [18],1.66 µM (active)
same,CC50,Vero [7],< 0.05 µM (active)
same,AC50,[29],< 0.16 µM (active)
same,AC50,Paired box protein Pax-8,< 0.26 µM (active)
same,IC50,[24],> 80 µM (inactive)
CC(C)N1CCC(N2CCN(C3CCCCC3)CC2CCO)CC1 (stereo not given),AC50,Escherichia coli [27],97 µM (active)
same,AC50,Escherichia coli [28],16.8 µM (active)
Cc1ccc2nsnc2c1NC(=O)c1ccc([N+](=O)[O-])o1,IC50,HEK293 [30],37.9 µM (inactive)
same,IC50,Jurkat [31],22.7 µM (inactive)
same,IC50,HEK293 [32],> 80 µM (inactive)
CC(C)c1ccc(C(NC(=O)C2CCCCC2)c2ccc3cccnc3c2O)cc1 (stereo not given),IC50,HEK293 [30],4.61 µM (active)
same,IC50,Jurkat [31],2.94 µM (active)
same,IC50,HEK293 [32],44.9 µM (inactive)
CCOC(=O)c1ccc(-c2ccc3ncnc(NCc4ccc(C)o4)c3c2)o1,AC50,[33],2.72 nM (active) and 93.6 nM (active)
